The source of these data is patent US8815840B2, “Carbazole and carboline kinase inhibitors” (Bristol-Myers Squibb Company, priority 2008, dated 2014).

The assay addresses JAK2 (Homo sapiens (Human), UniProt O60674). Kind of assay: JAK2 Tyrosine Kinase Assay. The assay is classed as biochemical. As to conditions: ATP 30 μM; JAK2 1 nM; 60 min at room temperature. The method, then: JAK2 Tyrosine Kinase Assay
The assays were performed in V-bottom 384-well plates. […] The reaction was initiated by the combination of JAK2 with substrates and test compounds. The reaction was incubated at room temperature for 60 min. and terminated by adding 45 μl of 35 mM EDTA to each sample. The reaction mixture was analyzed on the Caliper LABCHIP® 3000 by electrophoretic separation of the fluorescent substrate and phosphorylated product. […] Compounds were dissolved at 10 mM in dimethylsulfoxide (DMSO) and evaluated at eleven concentrations, each in duplicate. IC50 values were derived by non-linear regression analysis

Counter-ions that a name gives are not always drawn.

JAK2, sequence (O60674 whole entry): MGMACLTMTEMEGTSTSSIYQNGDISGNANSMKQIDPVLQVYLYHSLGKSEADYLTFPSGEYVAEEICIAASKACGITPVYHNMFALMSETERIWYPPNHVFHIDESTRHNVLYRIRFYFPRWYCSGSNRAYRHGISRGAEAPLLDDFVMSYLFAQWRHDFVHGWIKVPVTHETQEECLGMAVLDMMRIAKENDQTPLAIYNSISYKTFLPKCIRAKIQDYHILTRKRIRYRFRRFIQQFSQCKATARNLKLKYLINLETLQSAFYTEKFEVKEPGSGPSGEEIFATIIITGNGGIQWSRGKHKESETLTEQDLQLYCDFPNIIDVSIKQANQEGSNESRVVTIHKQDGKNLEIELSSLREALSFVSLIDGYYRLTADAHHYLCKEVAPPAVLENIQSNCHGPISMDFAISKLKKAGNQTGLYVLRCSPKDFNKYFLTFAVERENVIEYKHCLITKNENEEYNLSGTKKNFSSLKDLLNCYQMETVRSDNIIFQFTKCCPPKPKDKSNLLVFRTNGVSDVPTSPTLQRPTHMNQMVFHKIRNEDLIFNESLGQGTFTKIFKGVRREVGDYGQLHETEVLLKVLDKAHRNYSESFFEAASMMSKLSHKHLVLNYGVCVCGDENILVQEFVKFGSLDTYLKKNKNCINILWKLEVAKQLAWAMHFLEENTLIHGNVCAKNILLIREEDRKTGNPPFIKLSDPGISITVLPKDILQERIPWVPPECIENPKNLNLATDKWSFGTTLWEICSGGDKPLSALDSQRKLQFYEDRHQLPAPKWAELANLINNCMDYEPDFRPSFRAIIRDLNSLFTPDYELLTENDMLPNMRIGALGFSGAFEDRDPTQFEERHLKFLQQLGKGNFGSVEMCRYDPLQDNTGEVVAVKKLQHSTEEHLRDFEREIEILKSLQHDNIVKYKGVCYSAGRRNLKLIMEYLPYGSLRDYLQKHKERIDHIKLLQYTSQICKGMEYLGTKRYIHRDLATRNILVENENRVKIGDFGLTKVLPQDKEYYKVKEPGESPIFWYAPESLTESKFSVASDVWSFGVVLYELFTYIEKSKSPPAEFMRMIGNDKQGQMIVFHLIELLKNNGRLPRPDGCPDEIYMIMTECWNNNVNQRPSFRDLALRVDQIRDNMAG

As to `COc1ccc(-c2cc(C(N)=O)c3[nH]c4nc(OC)ccc4c3n2)cc1` [Example 129, 7-Methoxy-2-(4-methoxyphenyl)-5H-pyrido[2′,3′:4,5]pyrrolo[2,3-b]pyridine-4-carboxamide], the IC50 amounted to 110 nM.
Then `NC(=O)c1cc(-c2ccc(Cl)cc2)nc2c1[nH]c1cc(C(=O)N3CCOCC3)ccc12` [Example 227, 2-(4-chlorophenyl)-7-(4-morpholinylcarbonyl)-5H-pyrido[3,2-b]indole-4-carboxamide], with 2 nM; and `COc1cc(-c2cc(C(N)=O)c3[nH]c4cc(C(=O)N5CCN(C)CC5)ccc4c3c2)ccc1NC(=O)OC(C)(C)C` [Example 73, tert-butyl (4-(1-carbamoyl-7-((4-methyl-1-piperazinyl)carbonyl)-9H-carbazol-3-yl)-2-methoxyphenyl)carbamate], with 160 nM; and `NC(=O)c1cc(-c2cccc(Cl)c2)nc2c1[nH]c1ccc(CN3CCOCC3)cc12` [Example 257, 2-(3-Chlorophenyl)-8-(morpholinomethyl)-5H-pyrido[3,2-b]indole-4-carboxamide], with 1 nM.
To `NC(=O)c1cc(-c2ccc(CN3CCOCC3)c(Cl)c2)cc2c1[nH]c1cc(-c3cccnc3)ccc12` [Example 481, 3-(3-Chloro-4-(morpholinomethyl)phenyl)-7-(pyridin-3-yl)-9H-carbazole-1-carboxamide] belongs 133 nM; to `NC(=O)c1cc(-c2cc(CN3CCOCC3)co2)nc2c1[nH]c1cc(N3CCOCC3)ccc12` [Example 374, 7-morpholino-2-(4-(mor-pholinomethyl)furan-2-yl)-5H-pyrido[3,2-b]indole-4-carboxamide], 6 nM; to `COc1ccc(-c2cc(C(N)=O)c3[nH]c4cc(C(=O)N5CC[C@H](N(C)C)C5)ccc4c3n2)cc1F` [Example 211, (S)-7-(3-(Dimethylamino)pyrrolidine-1-carbonyl)-2-(3-fluoro-4-methoxyphenyl)-5H-pyrido[3,2-b]indole-4-carboxamide], under 1 nM.
Then `NC(=O)c1cc(-c2ccc(Cl)c(Cl)c2)nc2c1[nH]c1cc(OCCN3CCOCC3)ccc12` [Example 245], with 7 nM; and `NC(=O)c1nc(-c2ccccc2)cc2c1[nH]c1cc(C(=O)N3CCOCC3)ccc12` [Example 469, 7-(Morpholine-4-carbonyl)-3-phenyl-9H-pyrido[3,4-b]indole-1-carboxamide], with 11 nM; and `NC(=O)c1cc(-c2ccc(F)c(Cl)c2)cc2c1[nH]c1cc(C(=O)N3CCOCC3)ccc12` [Example 545, 3-(3-Chloro-4-fluorophenyl)-7-(morpholine-4-carbonyl)-9H-carbazole-1-carboxamide], with 885 nM.
Take `NC(=O)c1cc(N2CCOCC2)nc2c1[nH]c1cc(C(=O)N3CCOCC3)ccc12` [Example 403, 7-(morpholine-4-carbonyl)-2-morpholino-5H-pyrido[3,2-b]indole-4-carboxamide]: the IC50 stood at 142 nM.
Then `CN1CCN(c2ccc3c(c2)[nH]c2c(C(N)=O)cc(-c4cccc(Cl)c4)nc23)CC1` [Example 309, 2-(3-chlorophenyl)-7-(4-methylpiperazin-1-yl)-5H-pyrido[3,2-b]indole-4-carboxamide], with 1 nM.
For the compound `COc1cccc(-c2cc(C(N)=O)c3[nH]c4cc(C(=O)N(C)CCS(C)(=O)=O)ccc4c3c2)c1` [Example 96, 3-(3-methoxyphenyl)-N^7-methyl-N^7-(2-(methylsulfonyl)ethyl)-9H-carbazole-1,7-dicarboxamide], the IC50 is under 1 nM.
In the case of `COc1cccc(-c2cc(C(N)=O)c3[nH]c4cc(C(=O)N5CCN(Cc6cccnc6)CC5)ccc4c3c2)c1` [Example 88, 3-(3-methoxyphenyl)-7-((4-(3-pyridinylmethyl)-1-piperazinyl)carbonyl)-9H-carbazole-1-carboxamide], the IC50 was 6 nM.
As for `COc1ccc(-c2cc(C(N)=O)c3[nH]c4cc(C(=O)O)ccc4c3c2)cc1F` [Example 395, 8-Carbamoyl-6-(3-fluoro-4-methoxyphenyl)-9H-carbazole-2-carboxylate], the concentration for half-maximal inhibition (IC50) amounted to 111 nM.
For `Cc1cccc(-c2cc(C(N)=O)c3[nH]c4cc(N5CCN(Cc6ccccc6)CC5)ccc4c3c2)c1` [Example 479, 7-(4-Benzylpiperazin-1-yl)-3-m-tolyl-9H-carbazole-1-carboxamide], the IC50 turned out to be 123 nM.
To `Cc1cc(-c2cc(C(N)=O)c3[nH]c4cc(N5CCOCC5)ccc4c3n2)ccc1Cl` [Example 501, 2-(4-chloro-3-methylphenyl)-7-morpholino-5H-pyrido[3,2-b]indole-4-carboxamide] belongs 7 nM.
For `Cn1nc(C(F)(F)F)cc1-c1cc(C(N)=O)c2[nH]c3cc(C(=O)N4CCOCC4)ccc3c2n1` [Example 464, 2-(1-methyl-3-(trifluoromethyl)-1H-pyrazol-5-yl)-7-(morpholine-4-carbonyl)-5H-pyrido[3,2-b]indole-4-carboxamide], the half-maximal inhibitory concentration (IC50) is 314 nM.
In the case of `NC(=O)c1cc(-c2cnoc2)nc2c1[nH]c1cc(C(=O)N3CCOCC3)ccc12` [Example 462, 2-(isoxazol-4-yl)-7-(morpholine-4-carbonyl)-5H-pyrido[3,2-b]indole-4-carboxamide], the IC50 was determined as 112 nM.
Then `COCCOc1ccc(-c2cc(C(N)=O)c3[nH]c4cc(N5CCOCC5)ccc4c3n2)cc1Cl` [Example 357, 2-(3-chloro-4-(2-methoxyethoxy)phenyl)-7-morpholino-5H-pyrido[3,2-b]indole-4-carboxamide], with 6 nM; and `COc1cccc(-c2cc(C(N)=O)c3[nH]c4ccncc4c3c2)c1` [Example 203, 8-(3-Methoxyphenyl)-5H-pyrido[4,3-b]indole-6-carboxamide, HCl], with 34 nM.
To `NC(=O)c1cc(-c2ccc(CN3CCOCC3)s2)nc2c1[nH]c1cc(N3CCOCC3=O)ccc12` [Example 324, 2-(5-(Morpholinomethyl)thiophen-2-yl)-7-(3-oxomorpholino)-5H-pyrido[3,2-b]indole-4-carboxamide] belongs 1 nM; to `COc1ccc(-c2cc(C(N)=O)c3[nH]c4ccc(C(=O)N5CCOCC5)cc4c3c2)cc1OC` [Example 166, 3-(3,4-dimethoxyphenyl)-6-(4-morpholinylcarbonyl)-9H-carbazole-1-carboxamide], 6 nM.
To `CN(C)CCNC(=O)c1ccc2[nH]c3c(C(N)=O)cc(-c4ccc(Cl)c(Cl)c4)cc3c2c1` [Example 56, 3-(3,4-dichlorophenyl)-N^6-(2-(dimethylamino)ethyl)-9H-carbazole-1,6-dicarboxamide] belongs 6 nM.
In the case of `COc1cccc(-c2cc(C(N)=O)c3[nH]c4cc(C(=O)N5C[C@@H]6C[C@H]5CO6)ccc4c3c2)c1` [Example 124, 3-(3-methoxyphenyl)-7-((1S,4S)-2-oxa-5-azabicyclo[2.2.1]hept-5-ylcarbonyl)-9H-carbazole-1-carboxamide], the IC50 is 6 nM.
